Laboratory results published in patent publication US12545704B2, “Peptide for treating inflammation and wounds” (NIBEC CO., LTD., priority 2019, dated 2026).
No end group written: not given here.

Assays:
[1] = IVIS distribution of Cy5.5-labeled peptide in DSS-induced acute inflammatory bowel disease model; type: in vivo; settings: IP injection, DSS mice, 30, 60 and 180 minutes, FIG. 7
From the text: In order to confirm distribution of the synthesized peptide to the colon, inflammation was induced in mice using 5% DSS as drinking water for 7 days, after which the Cy5.5-labeled peptide of SEQ ID NO: 1 was IP-injected thereto.

[2] = target: T1, integrin beta 1 (Mus musculus, UniProt P09055); experiment: Confocal co-localization of Cy5.5-labeled peptide with integrin beta 1 in colon tissue; type: in vivo, mice; settings: 1 hour after injection, FIG. 11
T1 construct: from tissue; host or cells: colon of mice with DSS-induced colitis
From the text: In order to confirm co-localization of synthesized peptide to the colon, inflammation was induced in mice using 5% DSS in drinking water for 7 days, followed by the cy5.5-labeled peptide of SEQ ID NO: 1 was […] thereto. An hour after injection, each mouse was sacrificed and the colon tissue was isolated for analysis. Excised colons were fixed with 4% paraformaldehyde, and made frozen tissue block with Tissue-Tek® O.C.T. compound (4583, Sakura). Frozen tissue block was sectioned using clinical cryostat (CM1950, Leica) and placed on microscope slides.
Each sectioned tissue slides were stained for immunofluorescence. In brief, sectioned slides were permeabilized with 0.5% Triton X-100 (9036-19-5, Sigma-Aldrich) in PBS for 10 min. Next, 5% BSA in PBS were treated 30 minutes for blocking, followed by overnight incubation of anti-integrin beta 1 diluted in blocking buffer. After washing the slides, Alexa Fluor 488 conjugated anti-mouse secondary antibody (A-11001, Thermo Fisher Scientific) was diluted and incubated for an hour, and DAPI staining. Slides were mounted for imaging in confocal microscopy (LSM700, Carl Zeiss).

[3] = system: DSS-induced acute inflammatory bowel disease; experiment: Therapeutic effect in animal model of DSS-induced acute inflammatory bowel disease; type: in vivo, ICR mice
Method: In order to confirm the therapeutic effect of the synthesized peptide in animals, acute inflammatory bowel disease was induced with DSS in ICR mice (Orient Bio), and simultaneously, the synthesized peptide was injected thereto. Inflammation was induced in mice using 5% DSS as drinking water for 7 days, and simultaneously, the synthesized peptide was IP-injected thereto. The normal group (Normal, n=6) was not treated with DSS, and in the untreated group (No treatment, n=6), only DSS was used, and no drug was injected. The positive control group (SAHA, Sigma-Aldrich, 25 mg/kg, n=6), the immunomodulatory control group (Anti-TNF-a antibody, Pfizer, 1 mg/kg, n=6), and the peptide of SEQ ID NO: 1 (50 mg/kg, n=6) were injected once daily. After 7 days, mice were sacrificed by CO2 hyperventilation, the colons were collected, and the lengths thereof were compared. Additionally, the tissue was fixed and processed to prepare a paraffin block, and H&E staining was performed to determine whether the intestinal tissue was damaged.

[4] = system: colonic epithelial cells (Caco-2 cell); experiment: Proliferation of colonic epithelial cells (CCK-8); type: cell-based; settings: 100 μM, 3rd day, FIG. 5
Method: In order to confirm the proliferation and migration in colonic epithelial cells (Caco-2 cell, ATCC® HTB-37™) by the peptide according to the present invention, the cells were dispensed in an amount of 5×10^3 cells/well in a 96-well plate and then cultured for 24 hours in DMEM (Dulbecco's Modified Eagle Medium, Gibco). The peptides (SEQ ID NOS: 1, 2, and 3) were dispensed at a concentration of 100 μM in the cells and then cultured for up to 3 days at intervals of 1 day. The cell count was measured using a CCK-8 (Cell Counting Kit-8, CK04, Dojindo Lab.). After 1, 2, and 3 days, the medium containing the peptide was removed, 10% of a CCK-8 solution was added to fresh DMEM, and 100 μl thereof was then dispensed. After 1 hour and 30 minutes, absorbance was measured at 450 nm.

[5] = system: type IV collagen; experiment: Slot blotting, selectivity to collagen types: type IV (Experimental Example 2); type: binding; settings: peptide up to 100 μg/mL, FIG. 3
Method: (§1) In order to confirm the selectivity of peptides of SEQ ID NOS: 1 to 3 to collagen types, slot blotting was performed for types I, IV and VII collagen. The NC membrane was activated with TBST, and the peptides of SEQ ID NOS: 1, 2 and 3 were placed in each well at different concentrations (5, 10, 25, 50, and 100 μg/mL) and allowed to bind to the NC membrane in a vacuum for 2 hours. A 1% solution of each of types I, IV and VII collagen (MyBioSource, Inc., San Diego, CA, USA, MBS2018615) was added to the peptide-bound membrane and allowed to bind to the membrane in a vacuum for 2 hours. The membrane was washed with TBST, and the membrane to which the peptides and types I, IV, and VII collagen were attached was allowed to react with a primary rabbit anti-human type VII collagen antibody (MyBioSource, Inc., San Diego, CA, USA, MBS2004594) at a dilution ratio of 1:800 and with a secondary antibody goat anti-rabbit Ig G (BETHYL Lab., Montgomery, TX, USA, A90-116P) at a dilution ratio of 1:5000. The reacted membrane was washed with TBST, and a chemiluminescence test was performed using WEST-one.

[6] = system: Caco-2 cells; experiment: Scratch migration of colonic epithelial cells; type: cell-based; settings: Caco-2 scratch, 100 μM, FIG. 6; for migration area: 2nd day; for cell migration compared to cells not treated with the peptide: up to 48 hours
Method: In order to measure cell migration ability, Caco-2 cells (1×10^6 cells) were placed in a 6-well plate and cultured in DMEM supplemented with 10% fetal bovine serum (FBS) and 1% antibiotic-antimycotic solution (Gibco, Grand Island, N.Y., USA). The cells were washed with PBS and allowed to stand overnight in a medium containing 2% FBS. The central portion of the cell layer was scratched using a sterile 200 μl plastic pipette tip. The scratched cell layer was washed twice with PBS to remove unadhered cells. Each of the peptides of SEQ ID NOS: […] at a concentration of 100 μM to the medium, followed by culture for up to 48 hours. The extent of cell migration toward the center from the scratched edges was measured using an Olympus CKX41 inverted microscope (magnification: ×20).

[7] = target: T2, type VII collagen (Homo sapiens, UniProt Q02388); experiment: Slot blotting, binding ability to type VII collagen (Experimental Example 1); settings: peptide at 5, 10 and 20 μg/mL, FIG. 2
T2 construct: purchased MyBioSource, Inc. MBS2018615
T2 sequence (Q02388 17-2944): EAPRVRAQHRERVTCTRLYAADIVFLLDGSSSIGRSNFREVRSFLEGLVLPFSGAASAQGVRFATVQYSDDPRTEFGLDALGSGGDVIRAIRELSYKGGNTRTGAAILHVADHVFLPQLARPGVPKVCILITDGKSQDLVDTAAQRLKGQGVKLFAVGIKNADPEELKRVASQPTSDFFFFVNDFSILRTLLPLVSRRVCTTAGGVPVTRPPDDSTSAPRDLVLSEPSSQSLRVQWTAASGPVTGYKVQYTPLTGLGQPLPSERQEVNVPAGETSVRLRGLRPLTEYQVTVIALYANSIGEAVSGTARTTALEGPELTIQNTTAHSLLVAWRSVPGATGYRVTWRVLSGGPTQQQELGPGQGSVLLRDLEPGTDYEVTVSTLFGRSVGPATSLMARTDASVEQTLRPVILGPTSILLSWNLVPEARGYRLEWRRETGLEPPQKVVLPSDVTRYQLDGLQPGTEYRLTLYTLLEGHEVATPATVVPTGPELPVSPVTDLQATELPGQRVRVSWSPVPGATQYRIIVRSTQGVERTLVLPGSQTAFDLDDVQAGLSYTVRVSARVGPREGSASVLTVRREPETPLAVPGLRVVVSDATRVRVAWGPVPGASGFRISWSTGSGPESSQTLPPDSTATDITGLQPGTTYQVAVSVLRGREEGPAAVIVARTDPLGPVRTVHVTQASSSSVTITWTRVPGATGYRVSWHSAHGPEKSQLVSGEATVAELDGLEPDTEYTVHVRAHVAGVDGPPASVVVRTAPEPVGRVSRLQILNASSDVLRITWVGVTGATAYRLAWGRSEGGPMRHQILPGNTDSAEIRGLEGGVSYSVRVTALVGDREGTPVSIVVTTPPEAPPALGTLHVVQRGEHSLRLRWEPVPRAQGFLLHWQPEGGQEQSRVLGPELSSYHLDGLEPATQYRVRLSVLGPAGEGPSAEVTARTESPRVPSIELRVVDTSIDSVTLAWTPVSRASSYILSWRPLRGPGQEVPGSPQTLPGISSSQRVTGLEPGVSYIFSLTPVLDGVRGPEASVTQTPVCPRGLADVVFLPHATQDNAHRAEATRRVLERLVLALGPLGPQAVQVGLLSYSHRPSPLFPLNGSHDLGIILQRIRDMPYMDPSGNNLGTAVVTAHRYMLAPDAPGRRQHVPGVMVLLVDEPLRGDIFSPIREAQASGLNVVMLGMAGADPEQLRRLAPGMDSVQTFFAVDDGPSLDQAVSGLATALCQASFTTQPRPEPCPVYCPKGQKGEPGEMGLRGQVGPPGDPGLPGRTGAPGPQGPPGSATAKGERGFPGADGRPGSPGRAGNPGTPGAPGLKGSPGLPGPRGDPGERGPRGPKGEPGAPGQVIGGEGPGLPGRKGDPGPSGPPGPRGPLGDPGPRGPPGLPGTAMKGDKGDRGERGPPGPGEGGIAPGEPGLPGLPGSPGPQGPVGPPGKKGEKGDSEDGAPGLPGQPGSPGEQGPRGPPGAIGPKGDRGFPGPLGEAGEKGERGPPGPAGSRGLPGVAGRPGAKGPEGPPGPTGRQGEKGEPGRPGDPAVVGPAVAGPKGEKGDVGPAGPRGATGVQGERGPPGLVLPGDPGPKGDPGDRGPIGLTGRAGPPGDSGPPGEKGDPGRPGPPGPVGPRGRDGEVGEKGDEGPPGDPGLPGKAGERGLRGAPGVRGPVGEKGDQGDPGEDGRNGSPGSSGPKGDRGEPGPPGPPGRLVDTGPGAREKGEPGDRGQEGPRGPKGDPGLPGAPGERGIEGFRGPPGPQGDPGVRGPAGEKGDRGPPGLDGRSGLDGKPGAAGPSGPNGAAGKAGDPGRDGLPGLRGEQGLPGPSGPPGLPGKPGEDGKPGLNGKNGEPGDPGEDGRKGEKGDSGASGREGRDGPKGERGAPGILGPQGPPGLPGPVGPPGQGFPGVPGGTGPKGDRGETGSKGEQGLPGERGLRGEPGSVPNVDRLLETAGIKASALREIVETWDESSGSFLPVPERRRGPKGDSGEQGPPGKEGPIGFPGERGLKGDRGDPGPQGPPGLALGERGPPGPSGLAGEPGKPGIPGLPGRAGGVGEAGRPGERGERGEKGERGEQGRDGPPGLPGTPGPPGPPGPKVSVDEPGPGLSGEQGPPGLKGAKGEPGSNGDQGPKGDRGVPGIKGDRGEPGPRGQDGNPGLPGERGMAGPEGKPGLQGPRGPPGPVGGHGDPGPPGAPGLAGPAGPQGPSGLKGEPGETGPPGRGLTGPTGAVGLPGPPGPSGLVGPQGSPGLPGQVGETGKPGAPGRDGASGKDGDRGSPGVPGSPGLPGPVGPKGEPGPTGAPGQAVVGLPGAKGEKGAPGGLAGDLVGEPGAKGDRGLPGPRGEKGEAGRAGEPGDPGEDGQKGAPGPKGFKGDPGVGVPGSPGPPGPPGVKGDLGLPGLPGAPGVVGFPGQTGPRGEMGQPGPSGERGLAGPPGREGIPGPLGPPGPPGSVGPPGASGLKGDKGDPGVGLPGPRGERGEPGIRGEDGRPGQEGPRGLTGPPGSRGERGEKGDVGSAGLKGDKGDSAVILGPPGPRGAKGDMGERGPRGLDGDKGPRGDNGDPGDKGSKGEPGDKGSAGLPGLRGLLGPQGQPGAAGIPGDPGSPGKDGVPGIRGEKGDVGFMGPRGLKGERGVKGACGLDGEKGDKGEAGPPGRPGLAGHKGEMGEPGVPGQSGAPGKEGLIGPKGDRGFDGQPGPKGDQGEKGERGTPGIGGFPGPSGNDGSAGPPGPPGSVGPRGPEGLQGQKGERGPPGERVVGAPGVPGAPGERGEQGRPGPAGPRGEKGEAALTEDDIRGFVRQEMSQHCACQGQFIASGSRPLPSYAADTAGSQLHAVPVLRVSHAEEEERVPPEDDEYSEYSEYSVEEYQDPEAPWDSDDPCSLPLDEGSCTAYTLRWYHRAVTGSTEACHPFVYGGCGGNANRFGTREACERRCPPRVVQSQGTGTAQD
Method: Slot blotting was performed to confirm the ability of the peptides of SEQ ID NOS: 1 and 3 to bind to type VII collagen. The NC membrane was activated with TBST, and the peptides of SEQ ID NOS: 1 and 3 were placed in each well at different concentrations (5, 10, and 20 μg/mL) and allowed to bind to the NC membrane in a vacuum for 2 hours. A 1% solution of type VII collagen (MyBioSource, Inc., San Diego, CA, USA, MBS2018615) was added to the peptide-bound membrane and allowed to bind to the membrane in a vacuum for 2 hours. After washing the membrane with TBST, the membrane to which the peptide and type VII collagen were attached was allowed to react with a primary rabbit anti-human type VII collagen antibody (MyBioSource, Inc., San Diego, CA, USA, MBS2004594) at a dilution ratio of 1:800 and with a secondary antibody goat anti-rabbit Ig G (BETHYL Lab., Montgomery, TX, USA, A90-116P) at a dilution ratio of 1:5000. The reacted membrane was washed with TBST, and a chemiluminescence test was performed using WEST-one. Based on the results of measurement of the ability of the peptide to bind to type VII collagen depending on the peptide concentration, when the concentration of the peptide of SEQ ID NO: 1 was 10 μg/mL or more or the concentration of the peptide of SEQ ID NO: 3 was 5 μg/mL or more, the ability thereof to bind to type VII collagen was confirmed (FIG. 2).

[8] = target: T2, type VII collagen; experiment: Slot blotting, selectivity to collagen types: type VII (Experimental Example 2); type: binding; settings: for peptide concentration at which binding to type VII collagen was observed: peptide at 5, 10, 25, 50 and 100 μg/mL, FIG. 3
Method: as §1

[9] = target: T3, type I collagen (Homo sapiens, UniProt P02452+P08123); experiment: Slot blotting, selectivity to collagen types: type I (Experimental Example 2); type: binding; settings: peptide at 5, 10, 25, 50 and 100 μg/mL, FIG. 3
T3 construct: purchased MyBioSource, Inc
T3 sequence (P02452 162-1218): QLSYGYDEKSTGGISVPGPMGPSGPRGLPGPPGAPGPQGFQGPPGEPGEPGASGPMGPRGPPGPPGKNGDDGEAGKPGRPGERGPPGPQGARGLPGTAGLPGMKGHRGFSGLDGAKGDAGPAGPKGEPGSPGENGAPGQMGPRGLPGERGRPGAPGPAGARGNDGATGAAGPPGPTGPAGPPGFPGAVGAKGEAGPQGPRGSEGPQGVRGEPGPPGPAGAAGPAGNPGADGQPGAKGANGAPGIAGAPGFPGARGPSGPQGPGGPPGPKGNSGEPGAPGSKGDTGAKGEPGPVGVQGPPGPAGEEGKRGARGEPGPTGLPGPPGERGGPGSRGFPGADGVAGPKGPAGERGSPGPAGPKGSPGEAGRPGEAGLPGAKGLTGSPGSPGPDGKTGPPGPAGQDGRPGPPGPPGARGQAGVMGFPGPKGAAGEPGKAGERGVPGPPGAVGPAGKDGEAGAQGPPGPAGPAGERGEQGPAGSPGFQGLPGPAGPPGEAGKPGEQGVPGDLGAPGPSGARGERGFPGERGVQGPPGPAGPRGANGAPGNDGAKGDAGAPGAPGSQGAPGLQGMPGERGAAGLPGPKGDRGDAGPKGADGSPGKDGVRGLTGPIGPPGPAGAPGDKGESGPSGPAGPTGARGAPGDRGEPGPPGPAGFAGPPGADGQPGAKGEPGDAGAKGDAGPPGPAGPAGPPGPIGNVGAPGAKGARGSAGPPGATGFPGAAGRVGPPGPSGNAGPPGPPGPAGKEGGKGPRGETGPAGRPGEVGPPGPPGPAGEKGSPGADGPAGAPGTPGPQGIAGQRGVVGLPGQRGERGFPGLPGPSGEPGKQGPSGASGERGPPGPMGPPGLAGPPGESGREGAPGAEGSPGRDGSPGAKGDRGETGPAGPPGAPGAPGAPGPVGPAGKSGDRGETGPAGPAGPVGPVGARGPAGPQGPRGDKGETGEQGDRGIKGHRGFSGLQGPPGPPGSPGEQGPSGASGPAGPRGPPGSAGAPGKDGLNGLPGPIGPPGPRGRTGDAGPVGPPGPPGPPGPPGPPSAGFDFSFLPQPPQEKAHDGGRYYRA
T3 sequence (P08123 80-1119): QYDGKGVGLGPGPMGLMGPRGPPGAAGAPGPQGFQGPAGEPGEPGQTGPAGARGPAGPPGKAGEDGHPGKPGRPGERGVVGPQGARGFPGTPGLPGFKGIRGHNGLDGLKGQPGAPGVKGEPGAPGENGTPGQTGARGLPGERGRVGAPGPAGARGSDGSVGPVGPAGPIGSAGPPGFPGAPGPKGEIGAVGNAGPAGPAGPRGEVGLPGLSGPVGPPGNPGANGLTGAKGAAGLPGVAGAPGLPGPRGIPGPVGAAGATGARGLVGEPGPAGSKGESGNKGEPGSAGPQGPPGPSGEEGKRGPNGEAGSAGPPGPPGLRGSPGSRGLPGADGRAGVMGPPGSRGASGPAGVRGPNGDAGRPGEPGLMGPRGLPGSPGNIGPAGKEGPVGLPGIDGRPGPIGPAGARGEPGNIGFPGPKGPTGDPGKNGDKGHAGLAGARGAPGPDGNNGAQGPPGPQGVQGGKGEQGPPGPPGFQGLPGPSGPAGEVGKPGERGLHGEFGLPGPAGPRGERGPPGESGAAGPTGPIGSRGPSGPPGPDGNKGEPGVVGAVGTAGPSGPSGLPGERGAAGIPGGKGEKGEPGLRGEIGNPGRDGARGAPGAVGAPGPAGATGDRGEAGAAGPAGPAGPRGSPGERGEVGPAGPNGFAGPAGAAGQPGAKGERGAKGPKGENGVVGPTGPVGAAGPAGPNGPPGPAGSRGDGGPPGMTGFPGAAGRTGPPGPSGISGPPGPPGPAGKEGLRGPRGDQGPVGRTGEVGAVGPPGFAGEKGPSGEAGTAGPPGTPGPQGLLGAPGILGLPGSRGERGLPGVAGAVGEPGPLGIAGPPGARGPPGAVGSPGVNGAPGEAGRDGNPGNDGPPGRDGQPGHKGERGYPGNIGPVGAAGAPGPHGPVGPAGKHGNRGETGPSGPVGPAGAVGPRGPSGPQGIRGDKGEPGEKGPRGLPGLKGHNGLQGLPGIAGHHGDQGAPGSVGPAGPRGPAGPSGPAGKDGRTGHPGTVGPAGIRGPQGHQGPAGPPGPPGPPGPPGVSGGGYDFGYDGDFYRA
Method: as §1

[10] = system: E-cadherin; experiment: Real-time RT-PCR of wound-healing marker E-cadherin in colonic epithelial cells; type: cell-based; settings: Caco-2 cells; 50 and 100 μg/ml; 3 days; FIG. 4
Method: (§2) In order to confirm the expression level of the wound-healing marker in colonic epithelial cells (Caco-2 cell, ATCC® HTB-37™) by the peptide according to the present invention, colonic epithelial cells were dispensed in an amount of 5×10^6 cells/well in a 6-well plate and then cultured for 24 hours in DMEM (Dulbecco's Modified Eagle Medium, Gibco). The cells were treated with the peptides of SEQ ID NOS: 1, 2, and 3 at concentrations of 50 and 100 μg/ml and then cultured for up to 3 days. After 3 days, the cells were harvested and the gene expression levels of E-cadherin protein, which is highly expressed in colonic epithelial cells, and ZO-1 protein, which is highly expressed at the tight junction between colonic epithelial cells, were measured through real-time RT-PCR.
(§3) RNA was extracted from the obtained cells using TRIzol, and cDNA was synthesized using a kit from Thermo Scientific (cat. No. K1641). The same amount of cDNA was amplified by 40 cycles at 95° C.-60° C. using a SYBR green PCR master mix and a StepOnePlus™ Real-Time PCR System available from Applied Biosystems, and the ΔΔct values of individual groups were compared. The nucleotide sequences of the PCR primers used for amplification of each gene are as follows.

[11] = system: ZO-1; experiment: Real-time RT-PCR of wound-healing marker ZO-1 in colonic epithelial cells; type: cell-based; settings: Caco-2 cells; 50 and 100 μg/ml; 3 days; FIG. 4
Method: as §2, §3

[12] = system: DSS-induced chronic inflammatory bowel disease; experiment: Therapeutic effect in animal model of DSS-induced chronic inflammatory bowel disease; type: in vivo, ICR mice
Method: In order to confirm the therapeutic effect of the synthesized peptide in animals, chronic inflammatory bowel disease was induced with DSS in ICR mice (Orient Bio). 1.5% DSS was used as drinking water for 7 days, water not containing DSS was provided for the next 7 days, and 1.5% DSS was used as drinking water for the next 7 days (FIG. 9A). Thereafter, the peptide of SEQ ID NO: 1 was administered through SC injection. The normal group (Normal, n=9) was not treated with DSS, and the untreated group (Untreated, n=9) was treated only with DSS, and no drug was injected. The positive control group (Infliximab, 5 mg/kg, n=9) and the peptide of SEQ ID NO: 1 (30 mg/kg, n=9) were injected once daily for 14 days. 28 days after the start of DSS administration, the animals were sacrificed by CO2 hyperventilation, the colons were collected, and the lengths thereof were compared. Additionally, the tissue was fixed and processed to prepare a paraffin block, and H&E staining was performed to determine whether the intestinal tissue was damaged.

| Compound | binding to type IV collagen [5] | selectivity to type VII collagen versus types I and IV collagen [8] | peptide concentration at which binding to type VII collagen was observed [8] | peptide concentration at which binding to type I collagen was observed [9] | fluorescence in small intestine and colon (IVIS) [1] | cell proliferation rate compared to the control group (cells not treated with the peptide) [4] | migration area [6] | cell migration compared to cells not treated with the peptide [6] | gene expression of E-cadherin [10] | gene expression of ZO-1 [11] | further results |
| --- | --- | --- | --- | --- | --- | --- | --- | --- | --- | --- | --- |
| YGLRSKSKKFRRPDIQYPDAT-NH2 (C-terminus assumed) [SEQ ID NO: 1] |  |  |  |  | red fluorescence was constantly observed in the small intestine and colon from the initial 30 minutes to 180 minutes |  |  |  |  |  | localization of peptide in DSS-induced mouse colon ([2]; 5% DSS 7 days): detected in colon tissue; localization of peptide in normal colon [2]: does not show any localization |
| Cy5.5 [reference compound] |  |  |  |  | almost no fluorescence was observed at 180 minutes |  |  |  |  |  |  |
| O=C(CCCCCCC(=O)Nc1ccccc1)NO [SAHA] |  |  |  |  |  |  |  |  |  |  | colon length ([3]; 5% DSS 7 days, IP once daily, SEQ ID NO: 1 50 mg/kg, SAHA 25 mg/kg, antibody 1 mg/kg, p<0.05 vs untreated, FIG. 8): maintained the colon length; inflammatory cells in the intestinal mucosa (H&E histology) ([3]; acute DSS model, FIG. 8 part c): significantly decreased; villi structure (H&E histology) ([3]; acute DSS model, FIG. 8 part c): villi structure was maintained well |
| infliximab |  |  |  |  |  |  |  |  |  |  | inflammatory cells in the intestinal mucosa (H&E histology) ([12]; FIG. 9G): inflammatory cells in the intestinal mucosa were observed; villi structure (H&E histology) ([12]; FIG. 9G): some improvement compared to the untreated group, but villous damage; colon length ([12]; SEQ ID NO: 1 30 mg/kg SC, infliximab 5 mg/kg, once daily 14 days, p<0.05 vs untreated, FIG. 9D): maintained the colon length |

More lines, main results first:

| binding to type IV collagen [5] | selectivity to type VII collagen versus types I and IV collagen [8] | peptide concentration at which binding to type VII collagen was observed [8] | peptide concentration at which binding to type I collagen was observed [9] | Compound | fluorescence in small intestine and colon (IVIS) [1] | cell proliferation rate compared to the control group (cells not treated with the peptide) [4] | migration area [6] | cell migration compared to cells not treated with the peptide [6] | gene expression of E-cadherin [10] | gene expression of ZO-1 [11] | further results |
| --- | --- | --- | --- | --- | --- | --- | --- | --- | --- | --- | --- |
| did not bind | higher selectivity to type VII collagen | at least 10 μg/mL | 100 µg/mL | LTEFPLRMRDWLKN (Human osteonectin 160-173) [SEQ ID NO: 3] |  | 51% | 56% | increased cell migration | increased with an increase in the concentration of the peptide | increased with an increase in the concentration of the peptide | peptide concentration at which the ability to bind to type VII collagen was confirmed [7]: ≥ 5 µg/mL |
| did not bind | higher selectivity to type VII collagen | at least 20 μg/mL | 50 µg/mL | RPRYYLYKHAYFYPHLKRFP (human bone sialoprpotein II 41-60) [SEQ ID NO: 2, Human bone sialoprotein II 41-60] |  | 56% | 75% | increased cell migration | increased with an increase in the concentration of the peptide | increased with an increase in the concentration of the peptide |  |
